Columns and labels:
camalexin = test: Camalexin quantification by LC-MS; format: in vivo, Arabidopsis thaliana; conditions: 100 μM, 24 h, 14-day-old Col-0 plants
Description: For each treatment, camalexin was extracted from a pool of 14-day-old Arabidopsis. Briefly, 100 mg of ground-frozen samples were soaked using 80% (v:v) methanol in 1:1 (m/v) ratio. After homogenization, the supernatant was recovered through centrifugation at 17,000×g for 5 min and evaporated at 50° C. in nitrogen gas atmosphere. The residues were finally resuspended in high-performance LC-grade methanol and filtrated with 0.22-μm filters. Each pool was then analysed three times by LC-MS, using a reverse-phase LUNA® Omega 5 μm Polar C18 column (250×4.6 mm). The mobile phases were composed of 0.1% […] (solvent A) and acetonitrile (solvent B). The applied gradient was as follows: 0-2 min, 10% B; 2-13 min, 10-98% B; 13-23 min, 98% B; 23-25 min, 98-10% B; 25-30 min, […]; post-run 1 min.

defence marker genes = test: qPCR analysis of defence marker gene expression in Arabidopsis plants; format: in vivo, Arabidopsis thaliana
Description: Arabidopsis thaliana Columbia (Col-0) was the accession used for all the experiments. Seeds were surface sterilised by subsequent treatment with 50% v/v Et-OH and 3% bleach solution in agitation for 5 and 10 min, respectively. Seeds were then washed three times with distilled water and stratified for 3 days at 4° C. in the dark. For qPCR analysis and microarray experiments, seeds were sown on square petri dishes ([…]) containing half strength Murashige and Skoog (MS) salt, 2.5 mM MES, 1% w/v sucrose and 0.8% w/v plant agar. The experiments were performed using 14-day old seedlings grown vertically in a controlled growth cabinet with short day conditions ( 8/16 h light/dark; 100 μmol photons m^−2 s^−1) at 22±0.5° C. Treatments were performed by applying 40-50 μl of fresh-prepared and filtered solution per seedling.
For RNA extraction, 14-day old leaves from ten independent plants were collected at the indicated time point after treatments, pooled and frozen in liquid nitrogen. Total RNA was extracted from 100 mg of ground-frozen samples using the Maxwell® LEV Plant RNA Kit (Promega, Madison, WI, USA) and the RNA integrity was determined through NanoDrop 2000 UV-Vis Spectrophotometer (Thermo Scientific, Loughborough, UK). First-strand cDNA was synthesized by using SOLIScript® RT cDNA synthesis MIX (Solis Biodyne, Tartu, Estonia) and qPCRs were performed using SYBR® Selected MasterMix 2× (Applied Biosystems, Thermo Fisher Scientific, Waltham, USA), following the manufacturers' protocols. The cycling conditions consisted of an initial 7 min at 95° C., followed by 40 two-step cycles at 95° C. for 5 s and at 60° C. for 30 s. Melting curve analysis was performed after cycle completion to validate amplicon identity. Relative expression levels were calculated following the standard curve-based method (Larionov et al. A standard curve based method for relative real time PCR data processing, BMC Bioinformatics. 2005, vol. 6, 1) by using ACTIN as reference. Gene-specific primers used in this work are indicated below. […]

Botrytis cinerea [1] = test: Protection of tomato plants against Botrytis cinerea (lesion areas); format: in vivo; conditions: 100 μM; 4 weeks old tomato plants; compared with 100 μM AA9_COS
Description: All experiments were carried on 4 weeks old tomato plants infected with 10^6 spores per millilitres of Botrytis cinerea.
Protection of tomatoes plant against pathogen Botrytis cinerea using several combinations of native cellodextrines, and C1-oxidised, C4-oxidised, and optionally C1- and C4-oxidised (double oxidised) cellodextrines was tested (FIG. 14). In particular, the numerals in FIG. 14 represent mixtures with the following molar proportions of the respective cellodextrins components: • native:C1-oxidised:C4-oxidised • (1) 4:5:1; (2) 6.5:3:0.5; (3) 3:6.5:0.5; (4) 4:3:3; (5) 4:1:5; (6) 0.5:9:0.5; • native:C1-oxidised:C4-oxidised:doubly oxidised • (7) 0.5:4:0.5:5; (8) 2.5:2.5:2.5:2.5.
All experiments were carried on 4 weeks old tomato plants infected with 10^6 spores of Botrytis cinerea. All mixtures were applied having the same molar mass concentration of 100 μM.

Botrytis cinerea [2] = test: B. cinerea inoculation of Arabidopsis leaves: necrotic lesion area and in planta growth; format: in vivo
Description: For “in planta” growth test of Botrytis cinerea and histochemical assays, five-week-old Col-0 plants were germinated in soil and grown in controlled chamber ( 8/16 h light/dark at 22/20° C. day/night) with a relative humidity equal to 70%. Treatments were performed by applying 40-50 μl of fresh-prepared and filtered solution per leaf.
Botrytis cinerea (strain B05.10, from the INRA/IJPB Institute, Versailles, France) was grown on potato dextrose agar medium at 21° C., with a photoperiod of 12 h light/12 h dark. Leaves were inoculated with two 5-μL droplets of B. cinerea spores (5×10^5 spores ml-1). At the indicated time points, genomic DNA from whole leaves was extracted following the modified protocol of Edwards et al. (A simple and rapid method for the preparation of plant genomic DNA for PCR analysis. Nucl. Acid. Res. 1991, vol. 19, 13491991) and fungal biomass was quantified as described by Gachon and Saindrenan (Real-time PCR monitoring of fungal development in Arabidopsis thaliana infected by Alternaria brassicicola and Botrytis cinerea. Plant Physiol Biochem. 2004, vol. 42, 367-371).
Three days after fungus inoculation, the areas of the developing necrotic lesions were analysed by ImageJ software and the B. cinerea “in planta” growth was evaluated through qPCR. […]

MPK3/6 = test: Western-blot analysis of MPK3/6 phosphorylation; format: in vivo, Arabidopsis thaliana; conditions: 100 μM, 5 mins after treatment, Col-0 plants
Description: FIG. 10d illustrates early immunohistochemical quantification or Western-blot analysis of the MPK3/6 phosphorylation after the indicated treatments. […] Leaves were collected 5 mins after treatment, immediately frozen in liquid nitrogen, and stored at −80° C. for analysis. […] The separated proteins were transferred on a 0.45-μm Immobilon-PPVDF membrane (Millipore). Blocking was performed in TBST containing 5% non-fat dry milk, and blots were incubated overnight at 4° C. with specific antibodies (anti-AtMPK6 and anti-Phospho-p44/42 MPK (Thr202/Tyr204)), washed in TBST, and incubated with the secondary antibody anti-Rabbit IgG conjugated with horseradish peroxidase (HRP) enzyme diluted to 1/10,000. The chemiluminescent detection of HRP was performed withClarity™Western ECL Substrate and ChemiDoc™MP Imaging System.

[3] = vs CTR, same array-hybridised RNA

## OC[C@H]1O[C@@H](O[C@H]2[C@H](O)[C@@H](O)[C@H](O)O[C@@H]2CO)[C@H](O)[C@@H](O)[C@@H]1O [Cellobiose, β-D-glucopyranosyl(1→4)D-glucopyranose]
camalexin
  camalexin level: 3.7 ± 1.8 ng/g
Defence marker genes; 100 μM, 1 and 24 hours, 14-day old plants
  mRNA accumulation of MPK3/6, WRKY33, PAD3 and PEN3: lower magnitude of expression
Defence marker genes; [3]
  LOX4 (AT1G72520) gene expression, qPCR: 0.69 fold change
  MPK3 (AT3G45640) gene expression, qPCR: 0.02 fold change
  MPK6 (AT2G43790) gene expression, qPCR: 0.55 fold change
  PAD3 (AT3G26830) gene expression, qPCR: −1.06 fold change
  PEN3 (AT1G59870) gene expression, qPCR: 1.07 fold change
  PR1 (AT2G14610) gene expression, qPCR: 1.29 fold change
  WRKY18 (AT4G31800) gene expression, qPCR: 2.60 fold change
  WRKY22 (AT4G01250) gene expression, qPCR: 1.10 fold change
  WRKY33 (AT2G38470) gene expression, qPCR: 1.31 fold change
Defence marker genes; vs mock, same array-hybridised RNA
  IGMT2 (At1G21120) gene expression, qPCR: −1.59 fold change
Botrytis cinerea [1]
  protection of tomato plants (size of lesion areas): less protective effect
Botrytis cinerea [2]; 100 μM pre-treatment 24 h before inoculation, three days after inoculation
  reduction of average sizes of necrotic lesions compared with untreated leaves: a little protection
Botrytis cinerea [2]; 100 μM pre-treatment, 3 days after infection
  reduction of B. cinerea in planta growth (fungus biomass, qPCR): slight reduction
MPK3/6
  Early MPK3/6 phosphorylation: no phosphorylation was observed

From patent US12628822B2, “Plant pathogen defence elicitors” (UNIVERSITÉ LIBRE DE BRUXELLES, priority 2020, dated 2026)
